# Laboratory results published in the supplement of paper PMC11061612.
# Columns and labels:
# Assay in all cases: Bliss excess, mean over the matrix (fraction); higher = more synergy
# [1] = tested on: SU-DHL-8 (B-Cell Non-Hodgkin's Lymphoma)
# Outline: (§1)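 After 24 hours at 37°C and 5% CO2 in 1536-well plates, cells in DMEM/F12 or RPMI plus 10% FBS received two-drug dose matrices for 72 hours. Viability came from CellTiter-Glo 2.0 luminescence and was scaled as inhibition, anchored at 0 by vehicle wells and at 1 by blank wells. Combination Emax is taken as the second-highest inhibition in the matrix, and Bliss excess as the observed combination effect less EA + EB − EA·EB, with EA and EB the single-agent effects.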
# [2] = tested on: HDQ-P1 (Breast Carcinoma)
# Outline: as §1
# MEL-JUSO (Melanoma) = tested on: MEL-JUSO (Melanoma)
# Outline: as §1
# [3] = tested on: L-540 (Hodgkin's Lymphoma)
# Outline: as §1
# NCI-H2818 (Mesothelioma) = tested on: NCI-H2818 (Mesothelioma)
# Outline: as §1
# [4] = tested on: SR (Other Blood Carcinomas)
# Outline: as §1
# [5] = tested on: DND-41 (T-Lymphoblastic Leukemia)
# Outline: as §1
# [6] = tested on: BL-41 (Burkitt's Lymphoma)
# Outline: as §1
# [7] = tested on: NCI-H847 (Small Cell Lung Carcinoma)
# Outline: as §1
# [8] = tested on: MS751 (Cervical Carcinoma)
# Outline: as §1
# [9] = tested on: SW837 (Colorectal Carcinoma)
# Outline: as §1
# [10] = tested on: CAMA-1 (Breast Carcinoma)
# Outline: as §1
# [11] = tested on: MFM-223 (Breast Carcinoma)
# Outline: as §1
# ES8 (Ewing's Sarcoma) = tested on: ES8 (Ewing's Sarcoma)
# Outline: as §1
# LN-18 (Glioblastoma) = tested on: LN-18 (Glioblastoma)
# Outline: as §1
# U251 (Low Grade Glioma) = tested on: U251 (Low Grade Glioma)
# Outline: as §1
# ES1 (Ewing's Sarcoma) = tested on: ES1 (Ewing's Sarcoma)
# Outline: as §1
# [12] = tested on: TE-6 (Esophageal Squamous Cell Carcinoma)
# Outline: as §1
# WM-115 (Melanoma) = tested on: WM-115 (Melanoma)
# Outline: as §1
# [13] = tested on: KCL-22 (Chronic Myelogenous Leukemia)
# Outline: as §1
Structure (SMILES),Bliss excess [1],Bliss excess [2],Bliss excess (MEL-JUSO (Melanoma)),Bliss excess [3],Bliss excess (NCI-H2818 (Mesothelioma)),Bliss excess [4],Bliss excess [5],Bliss excess [6],Bliss excess [7],Bliss excess [8],Bliss excess [9],Bliss excess [10],Bliss excess [11],Bliss excess (ES8 (Ewing's Sarcoma)),Bliss excess (LN-18 (Glioblastoma)),Bliss excess (U251 (Low Grade Glioma)),Bliss excess (ES1 (Ewing's Sarcoma)),Bliss excess [12],Bliss excess (WM-115 (Melanoma)),Bliss excess [13]
"C[C@@H]1COCCN1c1cc(C2([S@](C)(=N)=O)CC2)nc(-c2ccnc3[nH]ccc23)n1 [AZD6738] + O=C(c1cc(Cc2n[nH]c(=O)c3ccccc23)ccc1F)N1CCN(C(=O)C2CC2)CC1 [Olaparib] (first compound max 10 µM, 7x7, partner max 10 µM)",0.0343,0.0155,0.0118,-0.022,0.0285,0.024,-0.0128,-0.0556,-0.014,0.0114,0.0093,-0.0327,0.0074,0.0543,0.0598,0.056,-0.0157,-0.0172,0.0166,-0.0454
"C=CCn1c(=O)c2cnc(Nc3ccc(N4CCN(C)CC4)cc3)nc2n1-c1cccc(C(C)(C)O)n1 [AZD1775] + C[C@@H]1COCCN1C2=NC(=NC(=C2)C3(CC3)[S@](=N)(=O)C)C4=C5C=CNC5=NC=C4 [AZD6738] (first compound max 1 µM, partner max 10 µM)",-0.0202,-0.0038,0.0009,-0.0091,-0.0577,0.0174,0.0181,0.0369,0.0684,0.0075,0.0057,0.0371,0.0412,0.0178,0.086,0.0604,0.0487,0.0135,-0.0523,0.0331
"Cc1c2c(nn1C)CSCc1cc(n(C)n1)CSc1cc(c3ccccc3c1)OCCCc1c(C(=O)O)n(C)c3c-2c(Cl)ccc13 [AZD5991] + CC1(C)CCC(CN2CCN(c3ccc(C(=O)NS(=O)(=O)c4ccc(NCC5CCOCC5)c([N+](=O)[O-])c4)c(Oc4cnc5[nH]ccc5c4)c3)CC2)=C(c2ccc(Cl)cc2)C1 [Venetoclax] (first compound max 1 µM, 7x7, partner max 1 µM)",0.0491,-0.0129,-0.0297,0.0902,-0.0489,0.0732,0.044,0.0108,0.253,0.0031,-0.0169,0.0985,-0.0041,0.0936,-0.0167,-0.0068,0.0817,-0.157,-0.0496,0.0111
"Cc1c2c(nn1C)CSCc1cc(n(C)n1)CSc1cc(c3ccccc3c1)OCCCc1c(C(=O)O)n(C)c3c-2c(Cl)ccc13 [AZD5991] + Cc1cc2ncnn2cc1Nc1ncc2c(n1)n(C1CCOCC1)c(=O)n2C [AZD7648] (first compound max 1 µM, 7x7, partner max 10 µM)",-0.0664,-0.0352,-0.0453,-0.0036,-0.0757,0.0257,-0.0023,0.029,0.0083,-0.0396,-0.0454,-0.0456,-0.0361,0.0038,-0.025,-0.0054,-0.013,-0.0874,-0.11,-0.0086
"Cc1c2c(nn1C)CSCc1cc(n(C)n1)CSc1cc(c3ccccc3c1)OCCCc1c(C(=O)O)n(C)c3c-2c(Cl)ccc13 [AZD5991] + C[C@@H](Nc1cc(F)cc(F)c1)c1cc(C(=O)N(C)C)cc2c(=O)cc(N3CCOCC3)oc12 [AZD8186] (first compound max 1 µM, 7x7, partner max 3 µM)",-0.0961,-0.0209,0.0086,-0.0224,-0.0343,-0.0278,-0.0249,-0.0096,0.0632,0.0705,-0.0156,0.0868,-0.047,0.042,0.0079,-0.0334,0.013,-0.0515,0.018,-0.0268
"CN(CCO)CC[C@H](CSc1ccccc1)Nc1ccc(S(=O)(=O)NC(=O)c2ccc(N3CCC([C@@H](O)c4ccccc4-c4ccc(Cl)cc4)CC3)cc2)cc1S(=O)(=O)C(F)(F)F [AZD4320] + CCN(CCO)CCCOc1ccc2c(Nc3cc(CC(=O)Nc4cccc(F)c4)[nH]n3)ncnc2c1 [AZD2811] (first compound max 1 µM, 7x7, partner max 1 µM)",-0.013,0.0258,0.0289,0.0985,-0.0555,0.0343,0.0382,-0.0172,0.0014,0.0064,0.0082,0.0961,-0.0022,0.0276,-0.0187,0.0287,0.142,0.0228,-0.0003,0.0572
"CCc1c2c(nc3ccc(O)cc13)-c1cc3c(c(=O)n1C2)COC(=O)[C@]3(O)CC [SN-38] + CN(C)CCCOc1ccc(-c2ccc3ncc4c(c3c2)n(C2CCOCC2)c(=O)n4C)cn1 [AZD0156] (first compound max 0.3 µM, 7x7, partner max 1 µM)",-0.059,0.0065,0.0265,0.0206,0.015,0.0878,-0.0584,0.0556,-0.023,0.0355,-0.0613,-0.0477,-0.0144,0.0458,0.0759,-0.0239,0.0784,-0.0254,-0.0408,0.0872
"CN(CCO)CC[C@H](CSc1ccccc1)Nc1ccc(S(=O)(=O)NC(=O)c2ccc(N3CCC([C@@H](O)c4ccccc4-c4ccc(Cl)cc4)CC3)cc2)cc1S(=O)(=O)C(F)(F)F [AZD4320] + C=CCn1c(=O)c2cnc(Nc3ccc(N4CCN(C)CC4)cc3)nc2n1-c1cccc(C(C)(C)O)n1 [AZD1775] (first compound max 1 µM, partner max 1 µM)",0.0017,0.0886,0.042,0.0594,-0.0586,0.254,0.049,0.0361,0.0494,-0.0494,-0.0063,-0.0421,-0.0103,0.0959,0.0152,-0.0676,0.0958,0.0061,0.0052,0.0022
"COc1cccc(OCCCN)c1-c1cc(Nc2cnc(C#N)cn2)n[nH]1 [Prexasertib] + C=CCn1c(=O)c2cnc(Nc3ccc(N4CCN(C)CC4)cc3)nc2n1-c1cccc(C(C)(C)O)n1 [AZD1775] (first compound max 1 µM, partner max 1 µM)",-0.0202,0.0861,0.0303,-0.0185,-0.0212,-0.014,-0.0247,0.0467,0.0809,0.0653,0.073,0.11,0.0825,0.0633,0.042,0.0943,0.0948,0.0995,0.0354,0.088
"CC1(C)CCC(CN2CCN(c3ccc(C(=O)NS(=O)(=O)c4ccc(NCC5CCOCC5)c([N+](=O)[O-])c4)c(Oc4cnc5[nH]ccc5c4)c3)CC2)=C(c2ccc(Cl)cc2)C1 [Venetoclax] + C[C@@H](Nc1cc(F)cc(F)c1)c1cc(C(=O)N(C)C)cc2c(=O)cc(N3CCOCC3)oc12 [AZD8186] (first compound max 1 µM, 7x7, partner max 3 µM)",-0.041,-0.0215,-0.0487,0.027,-0.0557,-0.027,0.0053,0.0218,0.106,0.006,-0.0419,-0.0706,-0.0187,-0.0777,-0.0273,-0.0431,-0.0374,-0.04,-0.0112,0.0129
